# Laboratory results as given in patent US20150259371A1, “METHODS AND COMPOUNDS FOR INHIBITING GLYCOSYLTRANSFERASES” (SIMON FRASER UNIVERSITY, priority 2010, published 2015).
# System: O-GlcNAc levels in COS-7 cells
# Assay: Western blot of O-GlcNAc levels (CTD110.6) in treated COS-7 cells
# Assay type: cell-based, African green monkey
# Conditions: 50 μM, 24 h
# Description: Cell culture: Cells were grown in an incubator at 37° C. and 5% CO2 atmosphere. Media and serum were purchased from Invitrogen. COS-7 cells were cultured in Dulbecco's modified Eagle's medium (DMEM) with 5% fetal bovine serum (FBS), and were typically 80-100% confluent prior to experimentation. HepG2, SK-N-SH, and EMEG32^−/− cells were cultured in Dulbecco's modified Eagle's medium (DMEM) with 5% fetal bovine serum (FBS), CHO cells in DMEMF-12 with 5% FBS and PC12 cells in DMEM with 5% FBS and 5% horse serum. Prior to experimentation, PC12 cells were plated at a density of 3-4×10^5 cells10 cm plate, which had been pre-treated with 5 μgcm^2 rat tail collagen (BD Biosciences). Cells were differentiated in DMEM containing 1% horse serum, in the presence of 2.5S mouse nerve growth factor (Chemicon) at a final concentration of 25 ng mL^−1, for 4-5 days prior to treatment. Other cell lines were 80-100% confluent prior to treatment. Following treatment with (Ac-)5SGlcNAc, using various conditions, cells were washed gently with PBS, lysed in SDS loading buffer and boiled for 10 minutes. Mouse hybridoma cells (obtained from the Developmental Studies Hybridoma Bank; antibody E7 for (:1-tubulin) were cultured in RPMI40 with 10% FBS. Prior to treatment with Ac-5SGlcNAc, hybridoma cells were cultured for 2 days in RPMI40 with 5% FBS, and during treatment in RPMI40 with no serum. Cells were collected, centrifuged (800 x g, 5 min) and the supernatant removed. Cells were washed with PBS, centrifuged, the pellet resuspended in SDS loading buffer and boiled. The supernatant after centrifugation, which contained the IgG antibody produced by the cells, was used for immunoprecipitation (see below for details).
# Westernlectin blots: Samples were run on 10% SDS polyacrylamide gels and transferred onto nitrocellulose membranes (Biorad). Membranes were blocked for 1 h in PBS containing 0.1% Tween-20 (PBS-T) containing 1% (unless otherwise stated) bovine serum albumin (BSA), and probed with the appropriate primary antibody or lectin in 1% BSA in PBS-T overnight at 4° C. Blots were washed for 1 hr with PBS-T, and blocked for a further 30 min with 1% BSA in PBS-T at room temperature. They were then probed with the appropriate horseradish peroxidise (HRP)-conjugated secondary antibodyprobe in 1% BSA in PBS-T at room temperature for 1 h, followed by washing in PBS-T for 1 h. Blots were developed with SuperSignal West Pico Chemiluminescent Substrate (Pierce) and exposed to CL-XPosure film (Pierce). Densitometry was performed using ImageQuant 5.2 (Molecular Dynamics), and fits to the data were made using GRAFIT^41.
# Antibodieslectins: O-GlcNAc levels were assessed primarily using CTD110.6 (Covance), but RL2 (Abcam) and HGAC85 (Abcam) were also tested. Actin was probed using JLA20 (Developmental Studies Hybridoma Bank). OGA levels were assessed using a polyclonal anti-OGA antibody which was a kind gift from Dr. Gerald Hart and OGT levels using H-300 (Santa Cruz Biotechnology). nup62 was probed using mAb 414 (Covance). Secondary antibodies employed (HRP-conjugated goat anti-mouse IgM, goat anti-mouse IgG, goat anti-chicken IgY and goat anti-rabbit IgG) were obtained from Santa Cruz Biotechnology. Biotinylated-ConA, PHA-L, SNA and MAA were purchased from EY Laboratories, and biotinylated-GNA from Vector Laboratories. HRP-conjugated streptavidin (Pierce) was used as a probe for the biotinylated lectins.
# Analogues (9, 10, 17-41) were tested in COS-7 cells, dosed at a final concentration of 50 μM in DMSO for 24 h. Following treatment, cells were washed with PBS, harvested into SDS-PAGE loading buffer and analyzed by western blot using standard procedures; blots were probed with the anti-O-GlcNAc antibody (CTD 110.6).
Structure (SMILES),effect on O-GlcNAc levels at single dose,extent of decrease of O-GlcNAc levels relative to parent compound 9
"CCC(=O)NC1C(OC(C)=O)SC(COC(C)=O)C(OC(C)=O)C1OC(C)=O [Compound 17, N-proprionyl-1,3,4,6-tetra-O-acetyl-α-D-5-thio-glucosamine]",decreased O-GlcNAc levels in cells,
"CCCC(=O)NC1C(OC(C)=O)SC(COC(C)=O)C(OC(C)=O)C1OC(C)=O [Compound 19, N-(n-butyryl)-1,3,4,6-tetra-O-acetyl-a-D-5-thio-glucosamine]",decreased O-GlcNAc levels in cells,
"CC(=O)OCC1SC(OC(C)=O)C(NC(=O)C(C)C)C(OC(C)=O)C1OC(C)=O [Compound 21, N-(i-butyryl)-1,3,4,6-tetra-O-acetyl-a-D-5-thio-glucosamine]",decreased O-GlcNAc levels in cells,
"CCCCC(=O)NC1C(OC(C)=O)SC(COC(C)=O)C(OC(C)=O)C1OC(C)=O [Compound 23, N-(n-valeryl)-1,3,4,6-tetra-O-acetyl-α-D-5-thio-glucosamine]",decreased O-GlcNAc levels in cells,
CC(=O)OCC1SC(OC(C)=O)C(NC(=O)CC(C)C)C(OC(C)=O)C1OC(C)=O (stereo not drawn) [Compound 25],decreased O-GlcNAc levels in cells,
"CCCCCC(=O)NC1C(OC(C)=O)SC(COC(C)=O)C(OC(C)=O)C1OC(C)=O [Compound 27, N-hexonoyl-1,3,4,6-tetra-O-acetyl-a-D-5-thio-glucosamine]",decreased O-GlcNAc levels in cells,comparable extent to the parent compound
"CC(=O)OC[C@H]1S[C@H](OC(C)=O)[C@H](N)[C@@H](OC(C)=O)[C@@H]1OC(C)=O.O=S(=O)(O)O [Compound 31′, 1,3,4,6-tetra-O-acetyl-a-D-5-thio-glucosamine sulphuric acid salt]",decreased O-GlcNAc levels in cells,
"CC(=O)OCC1SC(OC(C)=O)C(NC(=O)CC2CCCCC2)C(OC(C)=O)C1OC(C)=O [Compound 33, N-(2-Cyclohexylacetyl)-1,3,4,6-tetra-O-acetyl-a-D-5-thio-glucosamine]",decreased O-GlcNAc levels in cells,
"O=C(CC1CCCCC1)NC1C(O)SC(CO)C(O)C1O [Compound 34, N-(2-cyclohexylacetyl)-a-D-5-thio-glucosamine]",decreased O-GlcNAc levels in cells,
"CC(=O)OCC1SC(OC(C)=O)C(NC(=O)Cc2cccc3ccccc23)C(OC(C)=O)C1OC(C)=O [Compound 35, N-(1-naphthylacetyl)-1,3,4,6-tetra-O-acetyl-α-D-5-thio-glucosamine]",decreased O-GlcNAc levels in cells,
"O=C(Cc1cccc2ccccc12)NC1C(O)SC(CO)C(O)C1O [Compound 36, N-(1-Naphthylacetyl)-α-D-5-thio-glucosamine]",decreased O-GlcNAc levels in cells,
"CC[C@H](C)CC(=O)NC1C(OC(C)=O)SC(COC(C)=O)C(OC(C)=O)C1OC(C)=O (stereo partly drawn) [Compound 37, N-[(S)-methylvaleryl]-1,3,4,6-tetra-O-acetyl-α-D-5-thio-glucosamine]",decreased O-GlcNAc levels in cells,comparable extent to the parent compound
"CCC[C@H](C)C(=O)N[C@@H]1[C@@H](O)[C@H](O)[C@@H](CO)S[C@@H]1O [Compound 38, N-[(S)-2-methylvaleryl]-a-D-5-thio-glucosamine]",decreased O-GlcNAc levels in cells,comparable extent to the parent compound

# Same assay, conditions: 24 hours
row,Structure (SMILES),"effect on O-GlcNAc levels, dose response"
1,"CC(=O)NC1C(O)SC(CO)C(O)C1O [Compound 10, N-acetyl-α-D-5-thio-glucosamine]",decreased O-GlcNAc levels in a dose-dependent fashion

# Same assay, conditions: Chlorocebus sabaeus, 24 h, densitometry of western blot, read-out: EC50 for reduction of O-GlcNAc levels
row,Structure (SMILES),EC50 [µM]
1,"CC(=O)NC1C(O)SC(CO)C(O)C1O [Compound 10, N-acetyl-α-D-5-thio-glucosamine]",700

# Target: T1, OGA (Homo sapiens, UniProt O60502)
# T1 construct: made in house
# T1 sequence (O60502 1-916): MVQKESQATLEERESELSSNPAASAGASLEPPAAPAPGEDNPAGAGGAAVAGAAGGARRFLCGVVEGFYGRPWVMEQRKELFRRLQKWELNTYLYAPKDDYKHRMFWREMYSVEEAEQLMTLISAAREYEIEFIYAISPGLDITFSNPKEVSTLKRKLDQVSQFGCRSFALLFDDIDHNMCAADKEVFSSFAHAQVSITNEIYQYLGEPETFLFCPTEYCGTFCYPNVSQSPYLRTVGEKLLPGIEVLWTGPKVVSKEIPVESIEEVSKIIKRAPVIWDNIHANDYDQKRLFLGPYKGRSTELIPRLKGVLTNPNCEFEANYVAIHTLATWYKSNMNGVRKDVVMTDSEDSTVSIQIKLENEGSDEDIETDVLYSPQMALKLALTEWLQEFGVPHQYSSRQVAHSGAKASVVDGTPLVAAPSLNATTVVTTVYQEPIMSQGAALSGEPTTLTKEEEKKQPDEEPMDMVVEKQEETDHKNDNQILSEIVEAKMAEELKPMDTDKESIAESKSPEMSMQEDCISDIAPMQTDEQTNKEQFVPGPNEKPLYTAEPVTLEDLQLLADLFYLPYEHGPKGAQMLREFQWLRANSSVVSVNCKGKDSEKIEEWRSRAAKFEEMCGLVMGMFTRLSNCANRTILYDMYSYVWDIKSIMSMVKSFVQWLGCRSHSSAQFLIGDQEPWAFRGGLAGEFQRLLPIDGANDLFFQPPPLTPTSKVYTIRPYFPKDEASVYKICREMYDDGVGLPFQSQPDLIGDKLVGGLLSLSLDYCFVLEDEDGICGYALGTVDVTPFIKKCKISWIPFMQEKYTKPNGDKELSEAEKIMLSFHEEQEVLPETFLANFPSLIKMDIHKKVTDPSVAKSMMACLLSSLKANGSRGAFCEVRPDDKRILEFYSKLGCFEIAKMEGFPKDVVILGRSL
# Assay: OGA kinetics, Michaelis-Menten hydrolysis of pMP glycosides
# Assay type: biochemical
# Conditions: 37° C.
# Description: OGA kinetics: Synthesis and characterization of para-methoxyphenyl-5SGlcNAc is described in Example II. Kinetics were performed at 37° C. in PBS, pH 7.4 in a total volume of […]. Substrate concentrations of 25 μM to 1.5 mM were used for pMP-GlcNAc and 25 to 800 μM for pMP-5SGlcNAc. OGA (which was over-expressed and purified as described in Ref. ^42) was used at a concentration of 1 μM for pMP-GlcNAc and 3.6 μM for pMP-5SGlcNAc. Rates were monitored at a wavelength of 296 nm over the course of 10-20 min. Data were fit to the Michaelis-Menten equation in GRAFIT^41 and the kcat and KM values determined.
Structure (SMILES),kcat for OGA hydrolysis,Km [µM]
"COc1ccc(O[C@H]2S[C@H](CO)[C@@H](O)[C@H](O)[C@H]2NC(C)=O)cc1 [Compound 14, para-Methoxyphenyl 2-acetamido-2-deoxy-5-thio-α-D-glucopyranoside]",0.28 nmol s^−1 me,
"COc1ccc(O[C@@H]2O[C@H](CO)[C@@H](O)[C@H](O)[C@H]2NC(C)=O)cc1 [pMP-GlcNAc, para-methoxyphenyl-GlcNAc, reference compound]",14.3 nmol/s/mg,350

# Same assay, conditions: human OGA
Structure (SMILES),Vmax/E0KM for OGA hydrolysis [μmol s^−1 mg^−1 M^−1],fold less efficiently processed by OGA than pMP-GlcNAc [fold]
"COc1ccc(O[C@H]2S[C@H](CO)[C@@H](O)[C@H](O)[C@H]2NC(C)=O)cc1 [Compound 14, para-Methoxyphenyl 2-acetamido-2-deoxy-5-thio-α-D-glucopyranoside]",8.1,5
"COc1ccc(O[C@@H]2O[C@H](CO)[C@@H](O)[C@H](O)[C@H]2NC(C)=O)cc1 [pMP-GlcNAc, para-methoxyphenyl-GlcNAc, reference compound]",40.7,
